Tests used:
Test in all cases: CellTiter-Glo 2.0 cell viability, 7x7 combination dose response matrix, synergy scoring
Format in all cases: cell-based
[1] = system: MCF7 cell line; details: MCF7, first compound 4.1-1000 nM
Description: (§1) A study was undertaken to determine whether the combination of a GSPT1-directed MGD and an inhibitor of the PI3K/AKT/mTOR pathway could be effective in killing cancer cells and whether certain combination could elicit a greater than additive effect on cell killing.
(§2) FIG. 1 is a flow diagram of the method used to assess cancer cell killing by a combination of a GSPT1-directed MGD and an inhibitor of the PI3K/AKT/mTOR pathway. Certain of the materials and equipment used in the studies are presented in Table 3 and the cell lines used are presented in Table 4.
(§3) All assays were run in triplicate. Each 384-well plate accommodated six 7×7 dose response matrices (FIG. 2). All compound handling was performed using an Echo 650 Series Acoustic Liquid Handler, which enables fully automated, precise, contact-free acoustic transfer in volumes as low as 2.5 nL.
(§4) The following protocol was used for cell plating: • 1. Warm media to room temperature or 37° C. • 2. Prepare complete phenol-free media by adding 10% FBS+1% Pen-Strep to RPMI 1640 Medium or DMEM. • 3. Aspirate media from T175 tissue culture flask and rinse with 10 ml PBS. • 4. Aspirate PBS and add 2 mL 0.25% trypsin. Incubate the flask at 37° C. for 5 min or until cells are detached. • 5. Add 10 mL complete media to the flask to neutralize the trypsin, then collect cells in a 50 mL conical tube. • 6. Centrifuge cells at 300 g for 5 min. Aspirate media and suspend cell pellet in fresh media. Use cell strainer to strain cells into a new 50 mL conical tube. • 7. […] Mix 100 uL cell suspension with 100 uL trypan blue (1:1) and pipette 20 μL of the mixture into each of 2 counting chambers on a slide. Insert slide. • b. Adjust focus and record the live cell count. At least 2 independent measurements should be taken. […] Cell viability should be greater than 90%. […] Dilute cell suspension to the desired concentration (20000 cells/mL) using complete phenol-free media. Prepare 10 mL cell suspension per plate+an extra 10 mL for priming the liquid handler. • 9. Dispense cells into 384-well plates using the liquid handler at 25 uL/well (500 cells/well). 3 plates should be prepared per compound plate to be treated. • 10. Cells should be dispensed into columns 1-23 only. Media only (no cells) should be dispensed into column 24. • 11. Allow plates to rest at RT for 30 minutes before transferring to the incubator. Incubate cells overnight at 37° C., 95% humidity, and 5% CO2.
(§5) Compound plates were prepared as follows using an Echo 650 Series Acoustic Liquid Handler. • 1. A compound plate containing 7-point dose responses of each compound to be treated is first prepared from stock compounds. • 2. The cell plates are treated with compounds according to the following maps, where the first compound is added across all six 7 by 7 dose response matrices, and its concentration varies by row (FIG. 2; top matrix), whereas the second compound varies for each dose response matrix, and its concentration varies by column (FIG. 2; bottom matrix). Each cell plate receives one Compound A and six different Compound Bs. • 3. To prepare a compound plate, 384-well PP plate with stock compounds (highest concentration) is prepared. Compounds are diluted 1:1000 in the cell plates, e.g. 10 mM on compound plate will be 10 uM on cell plate. A 384-well LDV plate with pre-determined volumes of DMSO is prepared. Echo is used to dilute stock compounds from PP plate into LDV plate to prepare 7-point dose responses.
(§6) Compounds were added to the cells and cell viability was measured after 72 hour incubation using CellTiter-Glo 2.0 Cell Viability Assay (Promega): • 1. For a compound addition, Echo is used to transfer 25 nL from the compound plate wells to the cell plates according to the plate maps shown in FIG. 2. Cell plates are treated in triplicate. Each well of the cell plate has 25 uL media (1:1000 dilution). Incubate cells post-treatment at 37° C., 95% humidity, and 5% CO2 for 72 hrs (step 106). • 2. […]

[2] = system: NCI-H1155 cell line; details: first compound 1.05-500 nM
Description: as §1, §2, §3, §4, §5, §6

[3] = system: MDA-MB-157 cell line; details: first compound 4.1-1000 nM
Description: as §1, §2, §3, §4, §5, §6

[4] = system: MDA-MB-231 cell line
Description: as §1, §2, §3, §4, §5, §6

[5] = system: EBC-1 cell line
Description: as §1, §2, §3, §4, §5, §6

[6] = combined with Alpelisib 41-10000 nM
[7] = combined with Capivasertib 41-10000 nM
[8] = combined with Everolimus 41-10000 nM
[9] = combined with GNE-477 41-10000 nM
[10] = combined with KU-0063794 41-10000 nM
[11] = combined with M2698 41-10000 nM
[12] = combined with GNE-477 21-10000 nM
[13] = combined with KU-0063794 21-10000 nM
[14] = combined with M2698 21-10000 nM
[15] = MDA-MB-231, combined with Alpelisib 41-10000 nM, first compound 4.1-1000 nM
[16] = MDA-MB-231, combined with Capivasertib 41-10000 nM, first compound 4.1-1000 nM
[17] = MDA-MB-231, combined with Everolimus 41-10000 nM, first compound 4.1-1000 nM
[18] = MDA-MB-231, combined with GNE-477 41-10000 nM, first compound 4.1-1000 nM
[19] = MDA-MB-231, combined with KU-0063794 41-10000 nM, first compound 4.1-1000 nM
[20] = MDA-MB-231, combined with M2698 41-10000 nM, first compound 4.1-1000 nM
[21] = EBC-1, combined with GNE-477 21-10000 nM, first compound 1.05-500 nM
[22] = EBC-1, combined with KU-0063794 21-10000 nM, first compound 1.05-500 nM
[23] = EBC-1, combined with M2698 21-10000 nM, first compound 1.05-500 nM

Compound: O=C1CCC(N2Cc3ccc(COC(=O)Nc4cc(OC(F)(F)F)ccc4F)cc3C2=O)C(=O)N1 (centres unmarked) [Compound 1-1, [2-(2,6-dioxopiperidin-3-yl)-3-oxo-2,3-dihydro-1H-isoindol-5-yl]methyl N-[2-fluoro-5-(trifluoromethoxy)phenyl]carbamate]
- Mean Bliss synergy score [1, 6]: 1.44
- Mean Loewe synergy score [1, 6]: 6.88
- Mean Bliss synergy score [1, 7]: 1.60
- Mean Loewe synergy score [1, 7]: 11.02
- Mean Bliss synergy score [1, 8]: 6.39
- Mean Loewe synergy score [1, 8]: 17.49
- Mean Bliss synergy score [1, 9]: 8.82
- Mean Loewe synergy score [1, 9]: 12.53
- Mean Bliss synergy score [1, 10]: 9.78
- Mean Loewe synergy score [1, 10]: 14.51
- Mean Bliss synergy score [1, 11]: 8.47
- Mean Loewe synergy score [1, 11]: 15.52
- Mean Bliss synergy score [2, 12]: 1.97
- Mean Loewe synergy score [2, 12]: 4.77
- Mean Bliss synergy score [2, 13]: 0.38
- Mean Loewe synergy score [2, 13]: 3.70
- Mean Bliss synergy score [2, 14]: 1.48
- Mean Loewe synergy score [2, 14]: 5.14
- Mean Bliss synergy score [3, 6]: −2.43
- Mean Loewe synergy score [3, 6]: 2.54
- Mean Bliss synergy score [3, 7]: 3.83
- Mean Loewe synergy score [3, 7]: 7.36
- Mean Bliss synergy score [3, 8]: 1.61
- Mean Loewe synergy score [3, 8]: 8.84
- Mean Bliss synergy score [3, 9]: 1.72
- Mean Loewe synergy score [3, 9]: 6.42
- Mean Bliss synergy score [3, 10]: 2.25
- Mean Loewe synergy score [3, 10]: 6.64
- Mean Bliss synergy score [3, 11]: 4.89
- Mean Loewe synergy score [3, 11]: 7.65
- Mean Bliss synergy score [4, 15]: −0.82
- Mean Loewe synergy score [4, 15]: 5.41
- Mean Bliss synergy score [4, 16]: 6.44
- Mean Loewe synergy score [4, 16]: 8.02
- Mean Bliss synergy score [4, 17]: 12.28
- Mean Loewe synergy score [4, 17]: 15.50
- Mean Bliss synergy score [4, 18]: 4.62
- Mean Loewe synergy score [4, 18]: 12.93
- Mean Bliss synergy score [4, 19]: 4.80
- Mean Loewe synergy score [4, 19]: 9.37
- Mean Bliss synergy score [4, 20]: 3.71
- Mean Loewe synergy score [4, 20]: 11.94
- Mean Bliss synergy score ([4]; combined with M2698, MDA-MB-231 cell line, mean across dose response matrix, 72 hrs): 4.89
- Mean Bliss synergy score [5, 21]: 12.03
- Mean Loewe synergy score [5, 21]: 1.96
- Mean Bliss synergy score [5, 22]: 13.27
- Mean Loewe synergy score [5, 22]: −6.72
- Mean Bliss synergy score [5, 23]: 10.48
- Mean Loewe synergy score [5, 23]: 8.11
- Mean Bliss synergy score ([5]; combined with GNE-477 (21 nM to 10 uM), EBC-1 cell line, mean across dose response matrix, 72 hrs): 12.03

Source: patent publication US20260166045A1, “COMBINATION THERAPY COMPRISING GSPT1-DIRECTED MOLECULAR GLUE DEGRADERS AND PI3K/AKT/mTOR PATHWAY INHIBITORS” (Monte Rosa Therapeutics, Inc., priority 2022, published 2026)
